Patent US9156796B2, “Benzoimidazole-carboxylic acid amide derivatives as APJ receptor modulators” (SANOFI, priority 2013, dated 2015)

Biological target: T1, human apelin receptor (Homo sapiens, UniProt P35414)
T1 construct: expressed in transfected cells
T1 sequence (P35414 1-380): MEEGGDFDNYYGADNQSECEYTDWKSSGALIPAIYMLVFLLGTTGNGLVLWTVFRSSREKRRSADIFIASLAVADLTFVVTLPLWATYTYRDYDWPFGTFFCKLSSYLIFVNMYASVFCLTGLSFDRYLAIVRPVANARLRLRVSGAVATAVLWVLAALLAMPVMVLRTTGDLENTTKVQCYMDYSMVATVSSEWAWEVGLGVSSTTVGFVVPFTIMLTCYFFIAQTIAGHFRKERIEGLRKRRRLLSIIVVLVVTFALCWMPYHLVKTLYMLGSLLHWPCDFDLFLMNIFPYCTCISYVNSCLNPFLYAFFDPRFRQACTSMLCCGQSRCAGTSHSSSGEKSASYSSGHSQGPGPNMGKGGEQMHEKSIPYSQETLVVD
Experiment: Determination of agonism on the human apelin receptor by a calcium fluorescence assay (FLIPR)
Format: cell-based
Settings: HEK293 cells stably transfected with human apelin receptor and Giaq protein, Fluo-4 calcium fluorescence, read-out: EC50 (APJ agonism)
How it was run: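 HEK293 cells stably co-expressing human apelin receptor and promiscuous Giaq, loaded 1 h at 37 °C with Fluo-4 (4 μM) in probenecid-containing Hepes buffer, pH 7.4. Compounds, at least 7 concentrations in triplicate, added in FLIPR Tetra; peak calcium fluorescence normalized to 1 μM apelin-13 as 100% to derive EC50.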

Q: How did the EC50 turn out when CCC(CC)n1c(Cc2cccs2)nc2cc(C(=O)N[C@@H](CC(C)C)C(=O)NCCCN3CCN(C)CC3)ccc21 [Example 227, 1-(1-Ethyl-propyl)-2-thiophen-2-ylmethyl-1H-benzoimidazole-5-carboxylic acid {(S)-3-methyl-1-[3-(4-methyl-piperazin-1-yl)-propylcarbamoyl]-butyl}-amide] was run?
A: 287 nM

Q: Which EC50 does the source give for CCC(CC)n1c(Cc2cccs2)nc2cc(C(=O)N[C@@H](CC(C)C)C(=O)Nc3ccc(F)cc3)ccc21 [Example 228, 1-(1-Ethyl-propyl)-2-thiophen-2-ylmethyl-1H-benzoimidazole-5-carboxylic acid [(S)-1-(4-fluoro-phenylcarbamoyl)-3-methyl-butyl]-amide] here?
A: 8500 nM

Q: With CCC(CC)n1c(Cc2cccs2)nc2cc(C(=O)N[C@@H](CC(C)C)C(=O)N3CC(C)OC(C)C3)ccc21 (stereo partly drawn) [Example 229, 1-(1-Ethyl-propyl)-2-thiophen-2-ylmethyl-1H-benzoimidazole-5-carboxylic acid [(S)-1-(2,6-dimethyl-morpholine-4-carbonyl)-3-methyl-butyl]-amide] as the compound, how does the EC50 read?
A: 1940 nM

Q: How did the EC50 turn out when CCC(CC)n1c(Cc2cccs2)nc2cc(C(=O)N[C@@H](CC(C)C)C(=O)NCCN3CCCC3)ccc21 [Example 230, 1-(1-Ethyl-propyl)-2-thiophen-2-ylmethyl-1H-benzoimidazole-5-carboxylic acid [(S)-3-methyl-1-(2-pyrrolidin-1-yl-ethylcarbamoyl)-butyl]-amide] was run?
A: 288 nM

Q: CCC(CC)n1c(Cc2cccs2)nc2cc(C(=O)N[C@@H](CC(C)C)C(=O)NCCN3CCOCC3)ccc21 [Example 231, 1-(1-Ethyl-propyl)-2-thiophen-2-ylmethyl-1H-benzoimidazole-5-carboxylic acid [(S)-3-methyl-1-(2-morpholin-4-yl-ethylcarbamoyl)-butyl]-amide] was tested. Which EC50 did it give?
A: 525 nM

Q: For CCC(CC)n1c(Cc2cccs2)nc2cc(C(=O)N[C@@H](CC(C)C)C(=O)NC(C)CC(C)C)ccc21 (stereo partly drawn) [Example 232, 1-(1-Ethyl-propyl)-2-thiophen-2-ylmethyl-1H-benzoimidazole-5-carboxylic acid [(S)-1-(1,3-dimethyl-butylcarbamoyl)-3-methyl-butyl]-amide], which EC50 is on record?
A: 2920 nM

Q: How did the EC50 turn out when CCC(CC)n1c(Cc2cccs2)nc2cc(C(=O)N[C@@H](CC(C)C)C(=O)NCCN3CCCCC3)ccc21 [Example 233, 1-(1-Ethyl-propyl)-2-thiophen-2-ylmethyl-1H-benzoimidazole-5-carboxylic acid [(S)-3-methyl-1-(2-piperidin-1-yl-ethylcarbamoyl)-butyl]-amide] was run?
A: 394 nM

Q: CCC(CC)n1c(Cc2cccs2)nc2cc(C(=O)N[C@@H](CC(C)C)C(=O)NCCCN3CCOCC3)ccc21 [Example 234, 1-(1-Ethyl-propyl)-2-thiophen-2-ylmethyl-1H-benzoimidazole-5-carboxylic acid [(S)-3-methyl-1-(3-morpholin-4-yl-propylcarbamoyl)-butyl]-amide] was tested. Which EC50 did it give?
A: 344 nM

Q: How did the EC50 turn out when CCC(CC)n1c(Cc2cccs2)nc2cc(C(=O)N[C@@H](CC(C)C)C(=O)N3CCN(c4ccccc4)CC3)ccc21 [Example 235, 1-(1-Ethyl-propyl)-2-thiophen-2-ylmethyl-1H-benzoimidazole-5-carboxylic acid [(S)-3-methyl-1-(4-phenyl-piperazine-1-carbonyl)-butyl]-amide] was run?
A: 1300 nM

Q: Which EC50 does the source give for CCC(CC)n1c(Cc2cccs2)nc2cc(C(=O)N[C@@H](CC(C)C)C(=O)NCc3ccc(OC)cc3)ccc21 [Example 236, 1-(1-Ethyl-propyl)-2-thiophen-2-ylmethyl-1H-benzoimidazole-5-carboxylic acid [(S)-1-(4-methoxy-benzylcarbamoyl)-3-methyl-butyl]-amide] here?
A: 3870 nM

Q: CCC(CC)n1c(Cc2cccs2)nc2cc(C(=O)N[C@@H](CC(C)C)C(=O)NC3CCCC3)ccc21 [Example 237, 1-(1-Ethyl-propyl)-2-thiophen-2-ylmethyl-1H-benzoimidazole-5-carboxylic acid ((S)-1-cyclopentylcarbamoyl-3-methyl-butyl)-amide] was tested. Which EC50 did it give?
A: 2480 nM

Q: With CCC(CC)n1c(Cc2cccs2)nc2cc(C(=O)N[C@@H](CC(C)C)C(=O)NCc3ccccc3OC)ccc21 [Example 238, 1-(1-Ethyl-propyl)-2-thiophen-2-ylmethyl-1H-benzoimidazole-5-carboxylic acid [(S)-1-(2-methoxy-benzylcarbamoyl)-3-methyl-butyl]-amide] as the compound, how does the EC50 read?
A: 6550 nM

Q: For CCC(CC)n1c(Cc2cccs2)nc2cc(C(=O)N[C@@H](CC(C)C)C(=O)NCc3ccc4c(c3)OCO4)ccc21 [Example 239, 1-(1-Ethyl-propyl)-2-thiophen-2-ylmethyl-1H-benzoimidazole-5-carboxylic acid {(S)-1-[(benzo[1,3]dioxol-5-ylmethyl)-carbamoyl]-3-methyl-butyl}-amide], which EC50 is on record?
A: 5590 nM

Q: With CCC(CC)n1c(Cc2cccs2)nc2cc(C(=O)N[C@@H](CC(C)C)C(=O)N(C)CCc3ccccn3)ccc21 [Example 240, 1-(1-Ethyl-propyl)-2-thiophen-2-ylmethyl-1H-benzoimidazole-5-carboxylic acid {(S)-3-methyl-1-[methyl-(2-pyridin-2-yl-ethyl)-carbamoyl]-butyl}-amide] as the compound, how does the EC50 read?
A: 614 nM

Q: How did the EC50 turn out when CCC(CC)n1c(Cc2cccs2)nc2cc(C(=O)N[C@@H](CC(C)C)C(=O)NCCCN3CCCC3)ccc21 [Example 241, 1-(1-Ethyl-propyl)-2-thiophen-2-ylmethyl-1H-benzoimidazole-5-carboxylic acid [(S)-3-methyl-1-(3-pyrrolidin-1-yl-propylcarbamoyl)-butyl]-amide] was run?
A: 257 nM

Q: For CCC(CC)n1c(Cc2cccs2)nc2cc(C(=O)N[C@@H](CC(C)C)C(=O)Nc3ccc(N(CC)CC)cc3)ccc21 [Example 242, 1-(1-Ethyl-propyl)-2-thiophen-2-ylmethyl-1H-benzoimidazole-5-carboxylic acid [(S)-1-(4-diethylamino-phenylcarbamoyl)-3-methyl-butyl]-amide], which EC50 is on record?
A: 5930 nM

Q: How did the EC50 turn out when CCC(CC)n1c(Cc2cccs2)nc2cc(C(=O)N[C@@H](CC(C)C)C(=O)NC(C)CN(C)C)ccc21 (stereo partly drawn) [Example 243, 1-(1-Ethyl-propyl)-2-thiophen-2-ylmethyl-1H-benzoimidazole-5-carboxylic acid [(S)-1-(2-dimethylamino-1-methyl-ethylcarbamoyl)-3-methyl-butyl]-amide] was run?
A: 771 nM

Q: Which EC50 does the source give for CCC(CC)n1c(Cc2cccs2)nc2cc(C(=O)N[C@@H](CC(C)C)C(=O)NCc3ccc(F)cc3)ccc21 [Example 244, 1-(1-Ethyl-propyl)-2-thiophen-2-ylmethyl-1H-benzoimidazole-5-carboxylic acid [(S)-1-(4-fluoro-benzylcarbamoyl)-3-methyl-butyl]-amide] here?
A: 4280 nM

Q: Which EC50 does the source give for CCC(CC)n1c(Cc2cccs2)nc2cc(C(=O)N[C@@H](CC(C)C)C(=O)NCCCCN(C)C)ccc21 [Example 245, 1-(1-Ethyl-propyl)-2-thiophen-2-ylmethyl-1H-benzoimidazole-5-carboxylic acid [(S)-1-(4-dimethylamino-butylcarbamoyl)-3-methyl-butyl]-amide] here?
A: 291 nM

Q: With CCC(CC)n1c(Cc2cccs2)nc2cc(C(=O)N[C@@H](CC(C)C)C(=O)NC(C)c3ccc(F)cc3)ccc21 (stereo partly drawn) [Example 246, 1-(1-Ethyl-propyl)-2-thiophen-2-ylmethyl-1H-benzoimidazole-5-carboxylic acid {(S)-1-[1-(4-fluoro-phenyl)-ethylcarbamoyl]-3-methyl-butyl}-amide] as the compound, how does the EC50 read?
A: 6840 nM

Q: CCC(CC)n1c(Cc2cccs2)nc2cc(C(=O)N[C@@H](CC(C)C)C(=O)N[C@@H](C)c3ccc(OC)cc3)ccc21 [Example 247, 1-(1-Ethyl-propyl)-2-thiophen-2-ylmethyl-1H-benzoimidazole-5-carboxylic acid {(S)-1-[(S)-1-(4-methoxy-phenyl)-ethylcarbamoyl]-3-methyl-butyl}-amide] was tested. Which EC50 did it give?
A: 7220 nM

Q: With CCC(CC)n1c(Cc2cccs2)nc2cc(C(=O)N[C@@H](CC(C)C)C(=O)NCCCSC)ccc21 [Example 248, 1-(1-Ethyl-propyl)-2-thiophen-2-ylmethyl-1H-benzoimidazole-5-carboxylic acid [(S)-3-methyl-1-(3-methylsulfanyl-propylcarbamoyl)-butyl]-amide] as the compound, how does the EC50 read?
A: 1800 nM

Q: With CCC(CC)n1c(Cc2cccs2)nc2cc(C(=O)N[C@@H](CC(C)C)C(=O)NC3CCOCC3)ccc21 [Example 249, 1-(1-Ethyl-propyl)-2-thiophen-2-ylmethyl-1H-benzoimidazole-5-carboxylic acid [(S)-3-methyl-1-(tetrahydro-pyran-4-ylcarbamoyl)-butyl]-amide] as the compound, how does the EC50 read?
A: 407 nM

Q: With CCC(CC)n1c(Cc2cccs2)nc2cc(C(=O)N[C@@H](CC(C)C)C(=O)NCc3nccs3)ccc21 [Example 250, 1-(1-Ethyl-propyl)-2-thiophen-2-ylmethyl-1H-benzoimidazole-5-carboxylic acid {(S)-3-methyl-1-[(thiazol-2-ylmethyl)-carbamoyl]-butyl}-amide] as the compound, how does the EC50 read?
A: 520 nM

Q: How did the EC50 turn out when CCC(CC)n1c(Cc2cccs2)nc2cc(C(=O)N[C@@H](CC(C)C)C(=O)NCCC(F)(F)F)ccc21 [Example 251, 1-(-Ethyl-propyl)-2-thiophen-2-ylmethyl-1H-benzoimidazole-5-carboxylic acid [(S)-3-methyl-1-(3,3,3-trifluoro-propylcarbamoyl)-butyl]-amide] was run?
A: 2560 nM
